In experiment [1] the test system is B16-F10.9 melanoma. Kind of experiment: LEFCT-EC in mice bearing subcutaneous B16-F10.9 melanoma. In kind it is in vivo, C57BL/6 mice. As to conditions: for Tumor size (mean ± standard error): 7 days after treatment. As for the experimental part:
Animals: C57BL/6 male mice were obtained from the breeding colony of Tel-Aviv University, Israel. Mice were used at 8-12 weeks of age. Animal care and experimentation was carried out in accordance with Tel-Aviv University guidelines.
Melanoma tumor cell line: The highly metastatic, poorly immunogenic B16-F10.9 (F10.9) subclone of the B16 melanoma cell line was used to generate melanoma tumors in mice (Eisenbach L. et al., 1984. Int J Cancer 34:567). Cells were maintained in DMEM supplemented with 100 U/ml penicillin, 100 μg/ml streptomycin, 4 mM glutamine, 1 mM sodium pyruvate, 1% non-essential amino acids and 10% heat-inactivated fetal calf serum (FCS); and were cultured at 37° C. in a humidified incubator in an atmosphere of 7% carbon dioxide and 93% air.
Tumor generation protocol: F10.9 tumors were induced in C57BL/6 mice by subcutaneous injection of 2×10^5 F10.9 cells. Mice were subjected to experimental treatments once tumors reached 5 mm in diameter (about 60-70 mm^3). Chemotherapeutic drugs: The following chemotherapeutic drugs used were: cis-platinum (II) diamminedichloride (cisplatin; #P-4394, Sigma, Israel), dissolved in PBS for injections; Taxol (Mead Johnson Oncology Products, A Bristol-Myers Squibb, USA), obtained as a sterile nonpyrogenic solution containing 6 mg/ml paclitaxel, 527 mg/ml of purified Cremophor EL (polyoxyethylated castor oil) and 5-FU (Abic, Israel).
Low-strength electric field enhanced cancer therapy protocol: Mice were subjected to a single treatment of LEFCT-EC, once tumors reached 5 mm in diameter (11-17 days following tumor cell inoculation). Volumes of up to 100 μl of chemotherapeutic agents were injected into tumor loci, and exposures to electric fields were carried out 3-4 min following intratumoral injection of chemotherapeutic agents. To expose tumors to electric fields, stainless steel electrode needles (Karlsbader insect pins No 0. BioQuip Products, USA) soldered at their brassy ends with thin isolated copper wires were used. Electrodes were inserted to a depth of about 7 mm percutaneously into and in the immediate vicinity of the tumor; one cathode needle in the center of the tumor and three peripheral anodes, at a distance of about 5 mm from the cathode. The needles were connected to an electric pulse generator (Grass S48 Stimulator, USA). The field strength applied was about 40 V/cm; the repetition frequency, 500 Hz; and the pulse width, 180 μs. All mice were anesthetized prior to LEF treatment.
Statistical analysis: Statistical analysis of survival times (Kaplan-Meir test), survival comparisons between groups (Mantel-Cox test) and tumor volume differences between groups (Kolmogorov-Smirnov test) were performed using StatSoft Statistica statistical software. The 10-15% mortality rate in the 5 days following LEF or LEF-chemotherapy was considered as treatment-caused, therefore such cases of mortality were excluded.
Tumor volume determination: performed as described above in Example 1 of the Examples section.

Experiment [2] concerns B16-F10.9 melanoma. As to the kind of experiment: Rechallenge with B16-F10.9 cells of mice cured by LEFCT-EC. The experiment is classed as in vivo, C57BL/6 mice. The source says: FIG. 17 is a data plot depicting the cumulative survival of mice previously bearing B16-F10.9 melanoma and cured by LEFCT-EC with cisplatin or taxol following challenge with B16-F10.9 melanoma cells. Mice cured by LEF-chemotherapy that survived for 120-180 days after initial tumor inoculation, were challenged with 2×10^5 B16-F10.9 cells subcutaneously.
Effect of curative LEFCT-EC treatment on generation of anti B16-F10.9 tumor resistance: The resistance of mice cured of B16-F10.9 melanoma by LEF-chemotherapy was analyzed by challenging such cured mice with a tumorigenic dose of B16-F 10.9 melanoma cells.

The subject of experiment [3] is B16-F10.9 melanoma. As to the kind of experiment: Surgery with taxol versus LEFCT-EC with taxol in B16-F10.9 melanoma. The experiment is classed as in vivo, C57BL/6 mice. On the procedure: Comparison of surgery and LEFCT-EC: To compare the efficacy of LEFCT-EC to that of conventional surgery and chemotherapy treatments, C57BL/6 male mice (8-12 weeks old) were injected with 10^5 B16-F10.9 cells subcutaneously. Once the tumors reached 5 mm in diameter (11-17 days following inoculation), they were surgically removed. One experimental group received a single dose of taxol (20 mg/kg) subcutaneously in close proximity to the site of the operation one day following tumorectomy.

The test system of experiment [4] is DA3 mammary adenocarcinoma. Kind of experiment: LEFCT-EC in mice bearing DA3 mammary adenocarcinoma. In kind it is in vivo, BALB/c mice. On the procedure:
Animals: BALB/c female mice between the ages of 8 to 12 weeks obtained from the breeding colony of Tel-Aviv University, Israel were used in vivo tumor therapy experiments. Animal care and experimentation was carried out in accordance with Tel-Aviv University guidelines.
Tumor cell line: The highly metastatic, poorly immunogenic mammary adenocarcinoma cell line DA3 (Lopez D M. et al., 1981. J Natl Cancer Inst. 66:191) was used to generate mammary carcinoma tumors in mice. Cells were grown in DMEM supplemented with 100 U/ml penicillin, 100 μg/ml streptomycin, 4 mM glutamine, 1 mM sodium pyruvate, 1% non-essential amino acids and 10% heat-inactivated fetal calf serum (FCS), and cultured at 37° C. in a humidified incubator in an atmosphere of 7% carbon dioxide and 93% air. Tumors of this cell line grown to 1 cm in diameter produce metastatic cells, mainly in the lungs.
Reagents: Taxol (Mead Johnson Oncology Products, A Bristol-Myers Squibb, USA), obtained as a sterile nonpyrogenic solution containing 6 mg/ml paclitaxel, 527 mg/ml of purified Cremophor EL (polyoxyethylated castor oil) and 49.7% (v/v) dehydrated ethanol; and bleomycin (MegaPharm, Israel) were the anti cancer drugs used.
Low-strength electric field enhanced cancer chemotherapy protocol: Mice were subjected to a single treatment of LEF-chemotherapy, once primary tumors reached 5 mm in diameter (about 60-70 mm^3) (11-17 days following subcutaneous tumor cell inoculation). Up to 100 μl of chemotherapeutic agents was injected into the tumor loci. The exposure to electric field was carried out as described above in Example 2 of the Examples section.
Effect of LEFCT-EC using bleomycin or taxol on the survival of DA3 mammary adenocarcinoma bearing nice: BALB/c mice bearing DA3 mammary adenocarcinoma were treated by LEF-chemotherapy with intratumoral taxol (20 mg/kg) (FIG. 19) or bleomycin (30 U/kg) (FIG. 20) administration and their survival rate was compared with that of mice treated only with LEF or chemotherapy.

Experiment [5] concerns DA3 mammary adenocarcinoma. As to the kind of experiment: Rechallenge with DA3 cells of mice cured by LEFCT-EC with taxol. The experiment is classed as in vivo, BALB/c mice. As to conditions: challenged with 10^5 DA3 cells. As for the experimental part: Effect of curative LEFCT-EC treatment with taxol on generation of anti DA3 tumor resistance: The resistance of mice previously cured of DA3 mammary carcinoma via LEFCT-EC treatment with taxol to tumor growth following challenge by inoculation with 10^5 DA3 cells 120-180 days following initial tumor inoculation was analyzed. […] The MSTs of first-time inoculated normal mice and challenged mice were 38.1 and 46.7 days, respectively. Thus, curative treatment of DA3 tumors via LEFCT-EC treatment with taxol has the capacity to induce significant protection against growth of such a tumor in cured mice challenged with a tumorigenic dose thereof.

The subject of experiment [6] is DA3 mammary adenocarcinoma. Kind of experiment: Winn assay: DA3 cells co-inoculated with splenocytes of cured mice. The experiment is classed as in vivo, BALB/c mice. As to conditions: 10^5 DA3 cells + 10^7 splenocytes of mice cured via LEFCT-EC with taxol.
Where [7] appears, read: chemotherapy alone, intratumoral, no LEF.

This is an account of results in patent publication US7395112B2, “Method and apparatus for treating tumors using low strength electric fields” (priority 2002, dated 2008).

As for `CC(=O)O[C@H]1C(=O)[C@@]2(C)[C@H]([C@H](OC(=O)c3ccccc3)[C@]3(O)C[C@H](OC(=O)[C@H](O)[C@@H](NC(=O)c4ccccc4)c4ccccc4)C(C)=C1C3(C)C)[C@]1(OC(C)=O)CO[C@@H]1C[C@@H]2O` [taxol, paclitaxel], the “Tumor size (mean ± standard error)” value is recorded as 71 ± 25 mm^3 in experiment [1] (LEF-CT (drug + LEF), cisplatin 4 mg/kg, bleomycin 8 U/kg, 5-FU 150 mg/kg, taxol 20 mg/kg) and 927 ± 177 mm^3 in experiment [1] (intratumoral drug injection alone, same doses). The “mean survival time (MST)” value stood at 83.5 days in experiment [1] (LEF-chemotherapy: intratumoral drug + LEF about 40 V/cm 12 min, 120 days (cisplatin) or 180 days (taxol, bleomycin) after inoculation) and 36.7 days in experiment [1] (setting [7]). In experiment [1] (LEF-chemotherapy, 180 days after tumor inoculation), the “cure rate / animals alive and free of visible tumor” value is 26%. In addition, the “effect of drug alone on survival” value in experiment [1] (setting [7]) was “no effect”. In experiment [1] (pooled statement for cisplatin, taxol or bleomycin), the “LEFCT-EC treated mice that died two months and later after treatment with pulmonary metastatic foci, free of primary tumor” value is listed as “About 10%”. Further, the “MST of challenged mice” value stood at 73.2 days in experiment [2] (mice cured by LEFCT-EC with the drug, challenged with 2×10^5 B16-F10.9 cells) and 46.7 days in experiment [5]. Besides, the “challenged mice that did not develop tumor” value in experiment [2] (mice previously treated by LEFCT-EC with taxol) was “about 23.5%”. The cure rate in experiment [3] (LEF-chemotherapy with taxol) is listed as 26%; in experiment [3] (surgery + taxol 20 mg/kg subcutaneously one day after tumorectomy) it was 13%; in experiment [4] (LEF-chemotherapy, intratumoral taxol 20 mg/kg or bleomycin 30 U/kg, 180 days after tumor inoculation), 17%. The survival extension in experiment [3] (LEF-chemotherapy with taxol) was 84 days. Besides, the MST in experiment [3] (surgery + taxol 20 mg/kg subcutaneously) is 55 days. Also, the “survival time, Mean” value was found to be 73.8 in experiment [4] (LEF-chemotherapy with the drug) and 43.9 in experiment [4] (drug alone, intratumoral). Besides, the “survival time, Median” value in experiment [4] (LEF-chemotherapy with the drug) is recorded as 54.5; in experiment [4] (drug alone, intratumoral) it was 48. For the same compound, the Mean survival time in experiment [6] amounted to 39 days. In experiment [6] (14 days after inoculation), the Tumor size came to 143 µL.
